Consider two compounds from patent US20230172885A1, “THIOL-CONTAINING COMPOUNDS FOR USE IN TREATING CORONAVIRUS” (priority 2020, published 2023).

The target in the assay is RBD^N501Y binding to ACE2 (Severe acute respiratory syndrome coronavirus 2, UniProt P0DTC2, N501Y). Also noted: species or system SARS-CoV-2.

Regarding `O[C@@H]1[C@@H](O)[C@@H](O[C@H]2O[C@H](CS)[C@@H](O)[C@H](O)[C@H]2O)O[C@H](CS)[C@H]1O` [MUC-31, 6,6′-dithiotrehalose], the “inhibition of binding of RBD^N501Y to ACE2” value is given as “potently inhibited”.
As for `NCCS` [Cysteamine], the entry is “potently inhibited”.
